“Also recorded” adds a separate entry of the source.
How the values were obtained:
M. tuberculosis [1] = assay: microbe, parasite or virus in culture; format: cell-based
M. tuberculosis [2] = format: cell-based

| Structure (SMILES) | Sensitive (S) or Resistant (R) (M. tuberculosis [1]) | increase in minimal inhibitory concentration (MIC) (M. tuberculosis [1]) [fold] | increase in the MIC (M. tuberculosis [1]) [fold] | minimal inhibitory concentration (MIC) (M. tuberculosis [1]) [µg/mL] | expression signature (MSD Z-score) (M. tuberculosis [2]) | expression signature induction upon exposure (M. tuberculosis [2]) | transcriptional response (M. tuberculosis [2]) | transcriptional response / expression signature (M. tuberculosis [2]) |
| --- | --- | --- | --- | --- | --- | --- | --- | --- |
| NNC(=O)c1ccncc1 [Isoniazid] | S and R | > 100 | 8 | > 6.4 | resistant signature | no expression signature induction; also recorded: clearly shows induction of an expression signature | failed to elicit a transcriptional response | responds in a susceptible manner; also recorded: susceptible signature |
| [H]/N=C(/N)N[C@H]1[C@H](O)[C@@H](O)[C@H](O[C@@H]2O[C@@H](C)[C@](O)(C=O)[C@H]2O[C@@H]2O[C@@H](CO)[C@H](O)[C@@H](O)[C@@H]2NC)[C@@H](N/C(N)=N\[H])[C@@H]1O [Streptomycin] | S and R | – | – | – | – | – | – | – |
